Measured values published in US10294229B2, “Heteroaryl substituted aminopyridine compounds” (BRISTOL-MYERS SQUIBB COMPANY, priority 2015, dated 2019).

Biological target: IRAK4 (Homo sapiens (Human), UniProt Q9NWZ3)
Assay: IRAK4 Inhibition Assay
Assay type: biochemical
Conditions: ATP 500 μM; IRAK4 0.6 nM
In short: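 Readout: electrophoretic (LabChip) separation of fluorescent peptide substrate from phosphorylated product after EDTA quench. Reactions ran 60 min at room temperature with 0.6 nM IRAK4, 1.5 μM peptide and 500 μM ATP; inhibition referenced to no-enzyme (100%) and vehicle (0%) controls.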

IRAK4, sequence (Q9NWZ3 whole entry, species assumed): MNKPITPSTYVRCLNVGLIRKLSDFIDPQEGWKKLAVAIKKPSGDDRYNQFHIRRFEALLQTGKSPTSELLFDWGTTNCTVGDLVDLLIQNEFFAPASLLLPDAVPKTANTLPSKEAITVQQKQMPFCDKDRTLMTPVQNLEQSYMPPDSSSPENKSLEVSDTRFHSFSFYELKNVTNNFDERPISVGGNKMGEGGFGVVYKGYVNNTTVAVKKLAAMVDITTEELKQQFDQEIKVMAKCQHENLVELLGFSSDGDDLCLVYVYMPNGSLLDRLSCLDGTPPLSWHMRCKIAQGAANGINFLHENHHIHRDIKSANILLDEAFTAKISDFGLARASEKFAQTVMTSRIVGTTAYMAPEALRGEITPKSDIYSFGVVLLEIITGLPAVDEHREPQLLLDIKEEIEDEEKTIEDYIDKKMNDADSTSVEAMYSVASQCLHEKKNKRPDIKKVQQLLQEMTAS

Structure (SMILES) | IC50
CC(C)Nc1cc(-n2ncc3cc(C#N)cnc32)ncc1-n1cc(C(C)C)cn1 [Example 244, 1-(5-(4-isopropyl-1H-pyrazol-1-yl)-4-(isopropylamino)pyridin-2-yl)-1H-pyrazolo[3,4-b]pyridine-5-carbonitrile] | 61 nM
CC(C)Nc1cc(-n2ncc3cc(C#N)cnc32)ncc1-n1cc(-c2cncn2C)nn1 [Example 317, 1-(4-(isopropylamino)-5-(4-(1-methyl-1H-imidazol-5-yl)-1H-1,2,3-triazol-1-yl)pyridin-2-yl)-1H-pyrazolo[3,4-b]pyridine-5-carbonitrile] | 60 nM
COc1cc(OC)cc(-c2cn(-c3cnc(-n4ncc5cc(C#N)cnc54)cc3NC(C)C)nn2)c1 [Example 316, 1-(5-(4-(3,5-dimethoxyphenyl)-1H-1,2,3-triazol-1-yl)-4-(isopropylamino)pyridin-2-yl)-1H-pyrazolo[3,4-b]pyridine-5-carbonitrile] | 244 nM
CC(C)Nc1cc(-n2ncc3cc(C#N)cnc32)ncc1-c1cnn(CCO)c1 [Example 252, 1-(5-(1-(2-hydroxyethyl)-1H-pyrazol-4-yl)-4-(isopropylamino)pyridin-2-yl)-1H-pyrazolo[3,4-b]pyridine-5-carbonitrile] | 119 nM
CC(C)Nc1cc(-n2ncc3cc(C#N)cnc32)ncc1-n1cc(C(C)(C)O)nn1 [Example 298, 1-(5-(4-(2-hydroxypropan-2-yl)-1H-1,2,3-triazol-1-yl)-4-(isopropylamino)pyridin-2-yl)-1H-pyrazolo[3,4-b]pyridine-5-carbonitrile] | 194 nM
CC(C)Nc1cc(-n2cnc3cc(C#N)cnc32)ncc1-c1cn(CC(C)(C)O)nn1 [Example 67, 3-(5-(1-(2-hydroxy-2-methylpropyl)-1H-1,2,3-triazol-4-yl)-4-(isopropylamino)pyridin-2-yl)-3H-imidazo[4,5-b]pyridine-6-carbonitrile] | 32 nM
CC(C)Nc1cc(-n2ncc3cc(C#N)cnc32)ncc1-n1cc(-c2ccccc2)nn1 [Example 297, 1-(4-(isopropylamino)-5-(4-phenyl-1H-1,2,3-triazol-1-yl)pyridin-2-yl)-1H-pyrazolo[3,4-b]pyridine-5-carbonitrile] | 28 nM
CCCn1cc(-c2cnc(-n3cnc4cc(C#N)cnc43)cc2NCC)nn1 [Example 55, 3-(4-(ethylamino)-5-(1-propyl-1H-1,2,3-triazol-4-yl)pyridin-2-yl)-3H-imidazo[4,5-b]pyridine-6-carbonitrile] | 8 nM
CC(O)Cc1cn(-c2cnc(-n3ncc4cc(C#N)cnc43)cc2NC2CC2)nn1 (single isomer, unassigned) [Example 275, 1-(4-(cyclopropylamino)-5-(4-(2-hydroxypropyl)-1H-1,2,3-triazol-1-yl)pyridin-2-yl)-1H-pyrazolo[3,4-b]pyridine-5-carbonitrile] | 30 nM
CC(C)Nc1cc(-n2ncc3cc(C#N)cnc32)ncc1-c1cn(C2CNC2)nn1 [Example 138, 1-(5-(1-(azetidin-3-yl)-1H-1,2,3-triazol-4-yl)-4-(isopropylamino)pyridin-2-yl)-1H-pyrazolo[3,4-b]pyridine-5-carbonitrile] | 25 nM
CC(F)Cc1cn(-c2cnc(-n3ncc4cc(C#N)cnc43)cc2NC(C)C)nn1 (single isomer, unassigned) [Example 292, 1-(5-(4-(2-fluoropropyl)-1H-1,2,3-triazol-1-yl)-4-(isopropylamino)pyridin-2-yl)-1H-pyrazolo[3,4-b]pyridine-5-carbonitrile] | 29 nM
CC(C)Nc1cc(-n2ncc3cc(C#N)cnc32)ncc1-c1cn([C@@H]2O[C@H](CO)[C@H](O)[C@H](O)[C@H]2O)nn1 [Example 105, 1-(4-(isopropylamino)-5-(1-((2R,3R,4S,5R,6R)-3,4,5-trihydroxy-6-(hydroxymethyl)tetrahydro-2H-pyran-2-yl)-1H-1,2,3-triazol-4-yl)pyridin-2-yl)-1H-pyrazolo[3,4-b]pyridine-5-carbonitrile] | 55 nM
CC(C)Nc1cc(-n2ncc3cc(C#N)cnc32)ncc1-n1cc(CN(C)C)nn1 [Example 308, 1-(5-(4-((dimethylamino)methyl)-1H-1,2,3-triazol-1-yl)-4-(isopropylamino)pyridin-2-yl)-1H-pyrazolo[3,4-b]pyridine-5-carbonitrile] | 80 nM
COCc1cn(-c2cnc(-n3ncc4cc(C#N)cnc43)cc2NC(C)C)nn1 [Example 267, 1-(4-(isopropylamino)-5-(4-(methoxymethyl)-1H-1,2,3-triazol-1-yl)pyridin-2-yl)-1H-pyrazolo [3,4-b]pyridine-5-carbonitrile] | 83 nM
CC(C)(O)CCc1cn(-c2cnc(-n3ncc4cc(C#N)cnc43)cc2N[C@H]2CC[C@H](O)CC2)nn1 [Example 385, 1-(5-(4-(3-hydroxy-3-methylbutyl)-1H-1,2,3-triazol-1-yl)-4-(((1 s,4s)-4-hydroxycyclohexyl)amino)pyridin-2-yl)-1H-pyrazolo[3,4-b]pyridine-5-carbonitrile] | 3 nM
CC(C)Nc1cc(-n2ncc3cc(C#N)cnc32)ncc1-n1cc(C2CC2)nn1 [Example 300, 1-(5-(4-cyclopropyl-1H-1,2,3-triazol-1-yl)-4-(isopropylamino)pyridin-2-yl)-1H-pyrazolo[3,4-b]pyridine-5-carbonitrile] | 22 nM
CCOC(=O)Cn1cc(-c2cnc(-n3ncc4cc(C#N)cnc43)cc2NC(C)C)nn1 [Example 98, Ethyl 2-(4-(6-(5-cyano-1H-pyrazolo[3,4-b]pyridin-1-yl)-4-(isopropylamino)pyridin-3-yl)-1H-1,2,3-triazol-1-yl)acetate] | 2 nM
CC(C)Nc1cc(-n2ncc3cc(C#N)cnc32)ncc1-c1cn(-c2ccccc2)nn1 [Example 115, 1-(4-(isopropylamino)-5-(1-phenyl-1H-1,2,3-triazol-4-yl)pyridin-2-yl)-1H-pyrazolo[3,4-b]pyridine-5-carbonitrile] | 33 nM
CCCn1cc(-c2cnc(-n3ncc4cc(C#N)cnc43)cc2NC(C)C)cn1 [Example 261, 1-(4-(isopropylamino)-5-(1-propyl-1H-pyrazol-4-yl)pyridin-2-yl)-1H-pyrazolo[3,4-b]pyridine-5-carbonitrile] | 29 nM
CC(C)Nc1cc(-n2ncc3cc(C#N)cnc32)ncc1-n1cc(-c2cccnc2)nn1 [Example 299, 1-(4-(isopropylamino)-5-(4-(pyridin-3-yl)-1H-1,2,3-triazol-1-yl)pyridin-2-yl)-1H-pyrazolo[3,4-b]pyridine-5-carbonitrile] | 44 nM

The remaining compounds from weak to strong by IC50, led by results:

IC50 | Structure (SMILES)
336 nM | Cc1ccn(-c2cnc(-n3ncc4cc(C#N)cnc43)cc2NC(C)C)n1 [Example 246, 1-(4-(isopropylamino)-5-(3-methyl-1H-pyrazol-1-yl)pyridin-2-yl)-1H-pyrazolo[3,4-b] pyridine-5-carbonitrile]
153 nM | CC(C)Nc1cc(-n2ncc3cc(C#N)cnc32)ncc1-c1cnn(C2CC2)c1 [Example 259, 1-(5-(1-cyclopropyl-1H-pyrazol-4-yl)-4-(isopropylamino)pyridin-2-yl)-1H-pyrazolo[3,4-b]pyridine-5-carbonitrile]
93 nM | CNCc1cn(-c2cnc(-n3ncc4cc(C#N)cnc43)cc2NC(C)C)nn1 [Example 314, 1-(4-(isopropylamino)-5-(4-((methylamino)methyl)-1H-1,2,3-triazol-1-yl)pyridin-2-yl)-1H-pyrazolo[3,4-b]pyridine-5-carbonitrile]
75 nM | COc1ccc(Cn2cc(-c3cnc(-n4ncc5cc(C#N)cnc54)cc3NC(C)C)nn2)cc1 [Example 110, 1-(4-(isopropylamino)-5-(1-(4-methoxybenzyl)-1H-1,2,3-triazol-4-yl)pyridin-2-yl)-1H-pyrazolo[3,4-b]pyridine-5-carbonitrile]
56 nM | CC(C)Nc1cc(-n2ncc3cc(C#N)cnc32)ncc1-n1cc(CC(C)(C)O)nn1 [Example 306, 1-(5-(4-(2-hydroxy-2-methylpropyl)-1H-1,2,3-triazol-1-yl)-4-(isopropylamino)pyridin-2-yl)-1H-pyrazolo[3,4-b]pyridine-5-carbonitrile]
39 nM | CCC(C)(O)c1cn(-c2cnc(-n3ncc4cc(C#N)cnc43)cc2NC(C)C)nn1 (stereo not shown) [Example 322, 1-(5-(4-(2-hydroxybutan-2-yl)-1H-1,2,3-triazol-1-yl)-4-(isopropylamino)pyridin-2-yl)-1H-pyrazolo[3,4-b]pyridine-5-carbonitrile]
27 nM | CCOC(=O)N1CC[C@@H](n2cc(-c3cnc(-n4ncc5cc(C#N)cnc54)cc3NC(C)C)nn2)[C@@H](O)C1 [Example 189, (3S,4R)-ethyl 4-(4-(6-(5-cyano-1H-pyrazolo[3,4-b]pyridin-1-yl)-4-(isopropylamino)pyridin-3-yl)-1H-1,2,3-triazol-1-yl)-3-hydroxypiperidine-1-carboxylate]
16 nM | CC(C)Nc1cc(-n2ncc3cc(C#N)cnc32)ncc1-c1cn(CC#N)nn1 [Example 47, 1-(5-(1-(cyanomethyl)-1H-1,2,3-triazol-4-yl)-4-(isopropylamino)pyridin-2-yl)-1H-pyrazolo[3,4-b]pyridine-5-carbonitrile]
13 nM | CC(C)Nc1cc(-n2ncc3cc(C#N)cnc32)ncc1-c1cn(-c2cccnc2C#N)nn1 [Example 111, 1-(5-(1-(2-cyanopyridin-3-yl)-1H-1,2,3-triazol-4-yl)-4-(isopropylamino)pyridin-2-yl)-1H-pyrazolo[3,4-b]pyridine-5-carbonitrile]
6 nM | CC(=O)N1CC(n2cc(-c3cnc(-n4ncc5cc(Cl)cnc54)cc3NC(C)C)nn2)C1 [Example 155, 1-(3-(4-(6-(5-chloro-1H-pyrazolo[3,4-b]pyridin-1-yl)-4-(isopropylamino)pyridin-3-yl)-1H-1,2,3-triazol-1-yl)azetidin-1-yl)ethanone]
5 nM | COC(=O)N1CC[C@@H](n2cc(-c3cnc(-n4ncc5cc(C#N)cnc54)cc3NC(C)C)nn2)[C@H](O)C1 (single isomer, unassigned) [Example 205]
